Laboratory results from patent US11186544B2 (BRISTOL-MYERS SQUIBB COMPANY, priority 2017, dated 2021).
Read-outs that look alike come from different tables or passages of the source.

Key:
human FPR2 = human FPR2 (Homo sapiens (Human), UniProt P25090); assay: FPR2 cyclic adenosine monophosphate (cAMP) assay; type: cell-based; conditions: CHO cells overexpressing human FPR2
Experimental: FPR2 and FPR1 Cyclic Adenosine Monophosphate (cAMP) Assays. A mixture of forskolin (5 μM final for FPR2 or 10 μM final for FPR1) and IBMX (200 μM final) were added to 384-well Proxiplates (Perkin-Elmer) pre-dotted with test compounds in DMSO (1% final) at final concentrations in the range of 0.020 nM to 100 μM. Chinese Hamster Ovary cells (CHO) overexpressing human FPR1 or human FPR2 receptors were cultured in F-12 (Ham's) medium supplemented with 10% qualified FBS, 250 μg/ml zeocin and 300 μg/ml hygromycin (Life Technologies). Reactions were initiated by adding 2,000 human FPR2 cells per well or 4,000 human FPR1 cells per well in Dulbecco's PBS (with calcium and magnesium) (Life Technologies) supplemented with 0.1% BSA (Perkin-Elmer). The reaction mixtures were incubated for 30 min at room temperature. The level of intracellular cAMP was determined using the HTRF HiRange cAMP assay reagent kit (Cisbio) according to manufacturer's instruction. Solutions of cryptate conjugated anti-cAMP and d2 flurorophore-labelled cAMP were made in a supplied lysis buffer separately. Upon completion of the reaction, the cells were lysed with equal volume of the d2-cAMP solution and anti-cAMP solution. […] The potency and activity of a compound to inhibit cAMP production was then determined by fitting to a 4-parametric logistic equation from a plot of cAMP level versus compound concentrations.

human FPR1 = human FPR1 (Homo sapiens (Human), UniProt P21462); assay: FPR1 cyclic adenosine monophosphate (cAMP) assay; type: cell-based; conditions: CHO cells overexpressing human FPR1; inhibition of forskolin (10 μM) stimulated cAMP; read-out: hFPR1 cAMP EC50
Experimental: FPR2 and FPR1 Cyclic Adenosine Monophosphate (cAMP) Assays. A mixture of forskolin (5 μM final for FPR2 or 10 μM final for FPR1) and IBMX (200 μM final) were added to 384-well Proxiplates (Perkin-Elmer) pre-dotted with test compounds in DMSO (1% final) at final concentrations in the range of 0.020 nM to 100 μM. Chinese Hamster Ovary cells (CHO) overexpressing human FPR1 or human FPR2 receptors were cultured in F-12 (Ham's) medium supplemented with 10% qualified FBS, 250 μg/ml zeocin and 300 μg/ml hygromycin (Life Technologies). Reactions were initiated by adding 2,000 human FPR2 cells per well or 4,000 human FPR1 cells per well in Dulbecco's PBS (with calcium and magnesium) (Life Technologies) supplemented with 0.1% BSA (Perkin-Elmer). The reaction mixtures were incubated for 30 min at room temperature. The level of intracellular cAMP was determined using the HTRF HiRange cAMP assay reagent kit (Cisbio) according to manufacturer's instruction. Solutions of cryptate conjugated anti-cAMP and d2 flurorophore-labelled cAMP were made in a supplied lysis buffer separately. Upon completion of the reaction, the cells were lysed with equal volume of the d2-cAMP solution and anti-cAMP solution. After a 1-h room temperature incubation, time-resolved fluorescence intensity was measured using the Envision (Perkin-Elmer) at 400 nm excitation and dual emission at 590 nm and 665 nm. A calibration curve was constructed with an external cAMP standard at concentrations ranging from 1 μM to 0.1 pM by plotting the fluorescent intensity ratio from 665 nm emission to the intensity from the 590 nm emission against cAMP concentrations. The potency and activity of a compound to inhibit cAMP production was then determined by fitting to a 4-parametric logistic equation from a plot of cAMP level versus compound concentrations.

[1] = inhibition of forskolin (5 μM) stimulated cAMP, read-out: hFPR2 cAMP2 EC50
[2] = hFPR2 Assay, read-out: hFPR2 agonist activity EC50

Sequence of human FPR1 (P21462 whole entry): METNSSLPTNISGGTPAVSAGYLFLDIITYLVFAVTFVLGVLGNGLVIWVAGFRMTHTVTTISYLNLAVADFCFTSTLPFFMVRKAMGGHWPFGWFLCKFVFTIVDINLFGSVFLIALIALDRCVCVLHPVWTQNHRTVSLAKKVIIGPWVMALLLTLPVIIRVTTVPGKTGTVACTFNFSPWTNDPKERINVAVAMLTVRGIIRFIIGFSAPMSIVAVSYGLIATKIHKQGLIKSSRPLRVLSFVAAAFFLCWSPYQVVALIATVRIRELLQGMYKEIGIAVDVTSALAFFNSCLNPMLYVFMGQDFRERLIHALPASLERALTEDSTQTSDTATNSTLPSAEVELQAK
Sequence of human FPR2 (P25090 whole entry): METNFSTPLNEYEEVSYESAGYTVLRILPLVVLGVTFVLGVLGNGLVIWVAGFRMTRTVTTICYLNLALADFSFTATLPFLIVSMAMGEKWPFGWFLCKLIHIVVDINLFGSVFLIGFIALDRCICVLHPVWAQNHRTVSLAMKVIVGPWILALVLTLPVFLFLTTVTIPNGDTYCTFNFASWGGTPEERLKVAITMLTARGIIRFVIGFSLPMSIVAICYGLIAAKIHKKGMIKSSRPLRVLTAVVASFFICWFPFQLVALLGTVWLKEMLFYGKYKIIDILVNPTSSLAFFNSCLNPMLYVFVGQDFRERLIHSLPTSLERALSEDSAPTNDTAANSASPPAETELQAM

| EC50 (human FPR2; [1]) [nM] | EC50 (human FPR1) [nM] | EC50 (human FPR2; [2]) [nM] | Compound |
| --- | --- | --- | --- |
| 8.4 | 200 |  | Cc1ccc(NC(=O)NC2CCCN(c3ccc(-c4cccnc4)cc3)C2=O)cc1 (centres unmarked) [Example 15] |
| 9.3 | 390 |  | O=C(Nc1ccc(Cl)cc1)NC1CCCN(c2ccc(-c3cccnc3)cc2)C1=O (centres unmarked) [Example 16, 1-(4-chlorophenyl)-3-(2-oxo-1-(4-(pyridin-3-yl)phenyl)piperidin-3-yl)urea] |
| 10 | 170 |  | COc1ccc(NC(=O)NC2CCCN(c3ccc(-c4ccccc4S(C)(=O)=O)cc3F)C2=O)cc1 (centres unmarked) [Example 17, 1-(1-(3-fluoro-2′-(methylsulfonyl)-[1,1′-biphenyl]-4-yl)-2-oxopiperidin-3-yl)-3-(4-methoxyphenyl)urea] |
| 380 | 210 |  | Cc1cnc(NC(=O)NC2CCCN(c3ccc(-c4ccccc4S(C)(=O)=O)cc3F)C2=O)s1 (centres unmarked) [Example 26, 1-(1-(3-fluoro-2′-(methylsulfonyl)-[1,1′-biphenyl]-4-yl)-2-oxopiperidin-3-yl)-3-(5-methylthiazol-2-yl)urea] |
| 400 | 950 |  | CS(=O)(=O)c1ccccc1-c1ccc(N2CCCC(NC(=O)Nc3ccc(Cl)nn3)C2=O)c(F)c1 (centres unmarked) [Example 27, 1-(6-chloropyridazin-3-yl)-3-(1-(3-fluoro-2′-(methylsulfonyl)-[1,1′-biphenyl]-4-yl)-2-oxopiperidin-3-yl)urea] |
| 560 | 1200 |  | CS(=O)(=O)c1ccccc1-c1ccc(N2CCCC(NC(=O)Nc3ccc(F)cc3)C2=O)c(F)c1 (centres unmarked) [Example 28, 1-(1-(3-fluoro-2′-(methylsulfonyl)-[1,1′-biphenyl]-4-yl)-2-oxopiperidin-3-yl)-3-(4-fluorophenyl)urea] |
| 9.7 | 280 |  | O=C(Nc1ccc(C(F)(F)F)cc1)NC1CCCN(c2ccc(-c3ccccc3)cc2)C1=O (centres unmarked) [Example 36, 1-(1-([1,1′-biphenyl]-4-yl)-2-oxopiperidin-3-yl)-3-(4-(trifluoromethyl)phenyl)urea] |
| 330 | 1600 |  | Cc1ccncc1-c1ccc(N2CCCC(NC(=O)Nc3ccc(C(F)(F)F)cc3)C2=O)cc1 (centres unmarked) [Example 47, 1-(1-(4-(4-methylpyridin-3-yl)phenyl)-2-oxopiperidin-3-yl)-3-(4-(trifluoromethyl)phenyl)urea] |
| 560 | 930 |  | NC(=O)c1ccc(-c2ccc(N3CCCC(NC(=O)Nc4ccc(C(F)(F)F)cc4)C3=O)cc2)cc1 (centres unmarked) [Example 48, 4′-(2-oxo-3-(3-(4-(trifluoromethyl)phenyl)ureido)piperidin-1-yl)-[1,1′-biphenyl]-4-carboxamide] |
| 850 | 2100 |  | CS(=O)(=O)c1ccc(-c2ccc(N3CCCC(NC(=O)Nc4ccc(C(F)(F)F)cc4)C3=O)cc2)cc1 (centres unmarked) [Example 49, 1-(1-(4′-(methylsulfonyl)-[1,1′-biphenyl]-4-yl)-2-oxopiperidin-3-yl)-3-(4-(trifluoromethyl)phenyl)urea] |
| 9.2 | 280 |  | O=C(Nc1ccc(C(F)(F)F)cc1)N[C@H]1CCCN(c2ccc(-c3ccccc3CO)cc2)C1=O [Example 58] |
| 0.32 | 100 |  | CS(=O)(=O)Nc1ccccc1-c1ccc(N2CCC[C@@H](NC(=O)Nc3ccc(C(F)(F)F)cc3)C2=O)cc1 [Example 66] |
| 0.81 | 10 |  | N#Cc1ccccc1-c1ccc(N2CCC[C@@H](NC(=O)Nc3ccc(Cl)cc3)C2=O)cc1 [Example 76] |
| 0.68 | 8.8 |  | O=C(Nc1ccc(Cl)cc1)N[C@@H]1CCCN(c2ccc(-c3ccccc3CO)cc2)C1=O [Example 77] |
| 0.89 | 42 |  | NC(=O)c1ccccc1-c1ccc(N2CCC[C@@H](NC(=O)Nc3ccc(Cl)cc3)C2=O)c(F)c1 [Example 78] |
| 0.14 | 32 |  | CS(=O)(=O)Nc1ccccc1-c1ccc(N2CCC[C@@H](NC(=O)Nc3ccc(Cl)cc3)C2=O)cc1 [Example 86] |
| 9 | 330 |  | O=C(Nc1ccc(C(F)(F)F)cc1)N[C@@H]1CCCN(c2ccc(-c3cccc(F)c3F)cc2)C1=O [Example 125] |

| EC50 (human FPR2; [1]) [nM] | EC50 (human FPR1) [nM] | EC50 (human FPR2; [2]) [nM] | Compound |
| --- | --- | --- | --- |
| 9.4 | 170 |  | CCOc1ncccc1-c1ccc(N2CCC[C@@H](NC(=O)Nc3ccc(C(F)(F)F)cc3)C2=O)cc1 [Example 129] |
| 10 | 150 |  | NC(=O)c1ccccc1-c1ccc(N2CCC[C@@H](NC(=O)Nc3ccc(C(F)(F)F)cc3)C2=O)cc1 [Example 139] |
| 0.36 | 15 |  | CN(c1ncccc1-c1ccc(N2CCC[C@@H](NC(=O)Nc3ccc(C(F)(F)F)cc3)C2=O)cc1)S(C)(=O)=O [Example 145] |
| 8 | 330 |  | O=C(Nc1ccc(C(F)(F)F)cc1)N[C@@H]1CCCN(c2ccc(-c3cncc(N4CCOCC4)c3)cc2)C1=O [Example 166] |
| 450 | 900 |  | NC(=O)c1ccccc1-c1ccc(N2CCC[C@@H](NC(=O)Nc3ccc(F)cc3)C2=O)cc1 [Example 174] |
| 520 | 2600 |  | Cc1ccc(NC(=O)N[C@@H]2CCCN(c3ccc(-c4ccccc4C(N)=O)cc3)C2=O)c(C)c1 [Example 175] |
| 780 | 1200 |  | COc1ccc(NC(=O)N[C@@H]2CCCN(c3ccc(-c4ccccc4C(N)=O)cc3)C2=O)cc1Cl [Example 176] |
| 0.46 | 0.56 |  | CC(C)(C)NS(=O)(=O)c1ccccc1-c1ccc(N2CCC[C@@H](NC(=O)Nc3ccc(Cl)cc3)C2=O)cc1 [Example 183] |
| 8.1 | 1500 |  | CS(=O)(=O)Nc1ccccc1-c1ccc(N2CCC[C@@H](NC(=O)Nc3ccc(C(F)(F)F)cn3)C2=O)cc1 [Example 184] |
|  |  | 5 to 40 | O=C(Nc1ccc(Cl)cn1)N[C@@H]1C[C@@H](O)CN(c2ccc(-c3ccccc3F)cc2)C1=O [Example 269, 1-(5-Chloropyridin-2-yl)-3-((3R,5R)-1-(2′-fluoro-[1,1′-biphenyl]-4-yl)-5-hydroxy-2-oxopiperidin-3-yl)urea] |
|  |  | ≤ 5 | CC(N)c1cccc(-c2ccc(N3CCC[C@@H](NC(=O)Nc4ccc(Cl)cc4F)C3=O)c(F)c2F)c1 (stereo partly drawn) [Example 274, 1-((3R)-1-(3′-(1-Aminoethyl)-2,3-difluoro-[1,1′-biphenyl]-4-yl)-2-oxopiperidin-3-yl)-3-(4-chloro-2-fluorophenyl)urea] |
|  |  | ≤ 5 | N#Cc1ccccc1-c1ccc(N2CCC[C@@H](NC(=O)Nc3cnc(Cl)cn3)C2=O)c(F)c1F [Example 275, (R)-1-(5-Chloropyrazin-2-yl)-3-(1-(2′-cyano-2,3-difluoro-[1,1′-biphenyl]-4-yl)-2-oxopiperidin-3-yl)urea] |
|  |  | ≤ 5 | CS(=O)(=O)Nc1cccc(-c2ccc(N3CCC[C@@H](NC(=O)Nc4ccc(Cl)cc4)C3=O)cc2)c1F [Example 278, (R)-N-(4′-(3-(3-(4-Chlorophenyl)ureido)-2-oxopiperidin-1-yl)-2-fluoro-[1,1′-biphenyl]-3-yl)methanesulfonainide] |
|  |  | ≤ 5 | CS(=O)(=O)Nc1c(F)cccc1-c1ccc(N2CCC[C@@H](NC(=O)Nc3ccc(Cl)cc3)C2=O)cc1 [Example 279, (R)-N-(4′-(3-(3-(4-Chlorophenyl)ureido)-2-oxopiperidin-1-yl)-3-fluoro-[1,1′-biphenyl]-2-yl]methanesulfonamide] |
|  |  | 5 to 40 | CC(N)c1cccc(-c2ccc(N3CCC[C@@H](NC(=O)Nc4ccc(C(F)(F)F)cn4)C3=O)c(F)c2F)c1 (stereo partly drawn) [Example 280, 1-((3R)-1-(3′-(1-Aminoethyl)-2,3-difluoro-[1,1′-biphenyl]-4-yl)-2-oxopiperidin-3-yl)-3-(5-(trifluoromethyl)pyridin-2-yl)urea] |
|  |  | 5 to 40 | CS(=O)(=O)Nc1ccccc1-c1ccc(N2CCC[C@@H](NC(=O)Nc3ccc(Cl)cc3)C2=O)cc1OC(F)(F)F [Example 300] |
